According to paper PMC8523698, “Preclinical characterization of an intravenous coronavirus 3CL protease inhibitor for the potential treatment of COVID19” (Nature Communications, 2021):
Where “and” joins values, the source holds several entries; their conditions need not be identical. Equal entries are not always repeated. Where two headings read alike, the source gives them in different places.

Assays:
[1] = Cytotoxicity in MRC-5 cells; conditions: human
[2] = Metabolic stability and enzyme kinetics in liver S9 (conversion to PF-00835231)
[3] = as above; conditions: for PF-00835231 formation rate: Human Liver S9 0.03 mg/ml, 20 min, R1-R3; for Km at 20 min / microsomal CLint: human
[4] = as above; conditions: for microsomal CLint / Km at 20 min: rat
[5] = Liver S9 binding by equilibrium dialysis; conditions: for recovery at 6 h: human liver S9, %Recovery
[6] = In vitro blood to plasma ratio; type: in vitro ADME; conditions: for Plasma concentration (Cp) / Whole blood concentration (Cb): human blood, substrate 1 µM
CYP2C19 = CYP2C19 (Homo sapiens, UniProt P33261); assay: Reversible CYP inhibition in human liver microsomes; conditions: for activity at 0.01 µM / activity at 0.158 µM / activity at 0.398 µM / activity at 1 µM / activity at 15.8 µM / activity at 39.8 µM / activity at 100 µM: human, microsomes, pH 7.4, Percent of Control Activity; for activity at 39.8 µM: CYP 2C19, 39.8 µM
Sequence of CYP2C19 (P33261 whole entry): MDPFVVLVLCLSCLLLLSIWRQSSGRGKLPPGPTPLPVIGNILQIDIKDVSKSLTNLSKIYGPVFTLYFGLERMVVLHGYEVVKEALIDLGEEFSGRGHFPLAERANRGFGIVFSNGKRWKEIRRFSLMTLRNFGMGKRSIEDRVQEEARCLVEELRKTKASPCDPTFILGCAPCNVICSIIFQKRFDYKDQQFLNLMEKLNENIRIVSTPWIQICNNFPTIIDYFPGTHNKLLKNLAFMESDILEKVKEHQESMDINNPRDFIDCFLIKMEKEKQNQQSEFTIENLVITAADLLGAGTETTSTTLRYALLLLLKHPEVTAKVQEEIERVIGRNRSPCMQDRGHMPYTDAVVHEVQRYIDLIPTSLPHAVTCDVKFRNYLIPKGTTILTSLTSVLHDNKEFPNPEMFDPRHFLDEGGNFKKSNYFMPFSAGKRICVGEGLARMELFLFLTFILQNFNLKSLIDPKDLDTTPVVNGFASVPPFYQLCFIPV

[7] = liver S9, pH 7.5, CLint,2, low affinity kinetic component
[8] = liver S9, pH 7.5, CLintu (unbound CLint)

## COc1cccc2[nH]c(C(=O)N[C@@H](CC(C)C)C(=O)N[C@@H](C[C@@H]3CCNC3=O)C(=O)COP(=O)(O)O)cc12 [PF-07304814]
[1]
  CC50 at 5 days: > 100 µM
[1]; MRC-5 cells
  CC50 at 5 days: > 100 µM
[1]; MRC-5 cells, with CP-100356 (efflux inhibitor) 0.5 µM
  CC50 at 5 days: > 100 µM
[2]; Cyno, best-fit, Two enzyme: MM + Unsaturable
  Vmax: 1186 pmol/min/mg
[2]; cynomolgus monkey, liver S9, pH 7.5, CL, Cyno, unsaturable component, best-fit
  microsomal CLint: 3.06 µL/min/mg
[2]; cynomolgus monkey, liver S9, pH 7.5, CLint total, Cyno, (vmax / KM) + CL
  microsomal CLint: 150 µL/min/mg
[2]; monkey, liver S9, pH 7.5, CLint,2, low affinity kinetic component
  microsomal CLint: 3.06 µL/min/mg
[2]; monkey, liver S9, pH 7.5, CLint,app
  microsomal CLint: 150 µL/min/mg
[2]; monkey, liver S9, pH 7.5, CLintu (unbound CLint)
  microsomal CLint: 168 µL/min/mg
[2]; monkey, monkey liver S9, pH 7.5
  Km at 20 min: 8.1 µM
[3]; substrate 0.207 µM
  PF-00835231 formation rate: 100 pmol/min/mg and 108 pmol/min/mg and 109 pmol/min/mg
[3]; substrate 3.81 µM
  PF-00835231 formation rate: 923 pmol/min/mg and 978 pmol/min/mg and 975 pmol/min/mg
[3]; substrate 16.3 µM
  PF-00835231 formation rate: 2081 pmol/min/mg and 1997 pmol/min/mg and 1964 pmol/min/mg
[3]; substrate 33.8 µM
  PF-00835231 formation rate: 2700 pmol/min/mg and 2483 pmol/min/mg and 2383 pmol/min/mg
[3]; substrate 70.0 µM
  PF-00835231 formation rate: 3450 pmol/min/mg and 3533 pmol/min/mg and 2817 pmol/min/mg
[3]; Human liver S9, best-fit, Two enzyme: MM + Unsaturable
  Vmax: 2313 pmol/min/mg
[3]; Human, best-fit, Two enzyme: MM + Unsaturable
  Vmax: 2313 pmol/min/mg
[3]; human liver S9, pH 7.5, KM
  Km at 20 min: 6.23 µM
[3]; human liver S9, pH 7.5, Km, Human liver S9, best-fit, Two enzyme: MM + Unsaturable
  Km at 20 min: 6.23 µM
[3]; liver S9, pH 7.5, CLint total, Human liver S9, CLint total = (vmax / KM) + CL
  microsomal CLint: 381 µL/min/mg
[3]; liver S9, pH 7.5, CLint total, Human, (vmax / KM) + CL
  microsomal CLint: 381 µL/min/mg
[3]; [7]
  microsomal CLint: 9.96 µL/min/mg
[3]; liver S9, pH 7.5, CLint,app
  microsomal CLint: 381 µL/min/mg
[3]; [8]
  microsomal CLint: 428 µL/min/mg
[3]; liver S9, pH 7.5, Human liver S9 Clint, clearance input
  microsomal CLint: 381 µL/min/mg
[4]; Rat, best-fit, Two enzyme: MM + Unsaturable
  Vmax: 2188 pmol/min/mg
[4]; liver S9, pH 7.5, CL, unsaturable component, best-fit
  microsomal CLint: 4.56 µL/min/mg
[4]; liver S9, pH 7.5, CLint total, Rat, (vmax / KM) + CL
  microsomal CLint: 45.5 µL/min/mg
[4]; [7]
  microsomal CLint: 4.56 µL/min/mg
[4]; liver S9, pH 7.5, CLint,app
  microsomal CLint: 45.5 µL/min/mg
[4]; [8]
  microsomal CLint: 51 µL/min/mg
[4]; rat liver S9, pH 7.5, KM
  Km at 20 min: 53.4 µM
[4]; rat liver S9, pH 7.5, Km, Rat, best-fit, Two enzyme: MM + Unsaturable
  Km at 20 min: 53.4 µM
[5]; clearance input
  Hum liver S9 binding: 0.89
[5]; human liver S9 matrix, n=4
  %Stability: 98%
[5]; human, human liver S9 binding, MEAN, n 4
  recovery at 6 h: 94%
[5]; human, human liver S9 binding, individual replicates
  recovery at 6 h: 95%
[5]; human, human liver S9, fu MEAN, human liver S9, mean, n=4
  fraction unbound at 6 h: 0.89
[5]; human, human liver S9, fu, human liver S9, individual replicates 1-4
  fraction unbound at 6 h: 0.902
[5]; human, human liver S9, fu, human liver S9 binding, MEAN, n 4
  fraction unbound at 6 h: 0.89
[5]; human, human liver S9, fu, human liver S9 binding, individual replicates
  fraction unbound at 6 h: 0.867
[5]; human, liver S9, Unbound fraction fu (%CV), human liver S9, 0.03mg/mL protein, 2 µM substrate
  fraction unbound at 6 h, 2 µM: 0.89
[5]; individual replicates
  %Recovery, human liver S9 binding: 88% and 99%
  fu, human liver S9 binding: 0.888
[5]; mean, n 4
  %Stability, human liver S9 binding: 98%
[6]
  Measured blood partitioning / Human blood partitioning: 0.6
[6]; Mean
  Plasma concentration (Cp): 1970 nM
  Whole blood concentration (Cb): 1.08 µM
[6]; individual replicates
  Plasma concentration (Cp): 2010 nM and 2000 nM and 1900 nM and 1950 nM
  Whole blood concentration (Cb): 1.11 µM and 1.06 µM and 1.1 µM
CYP2C19
  IC50: > 100 µM
CYP2C19; CYP 2C19, 0.01 µM, Zero-Minute Preincubation, 0.01 µM
  Percent of Control Activity: 94.2%
CYP2C19; CYP 2C19, 0.158 µM, 30-Minute Preincubation, 0.158 µM
  Percent of Control Activity: 96.4%
CYP2C19; CYP 2C19, 0.158 µM, Zero-Minute Preincubation, 0.158 µM
  Percent of Control Activity: 101.4%
CYP2C19; CYP 2C19, 0.398 µM, 30-Minute Preincubation, 0.398 µM
  Percent of Control Activity: 100.7%
CYP2C19; CYP 2C19, 0.398 µM, Zero-Minute Preincubation, 0.398 µM
  Percent of Control Activity: 97.9%
CYP2C19; CYP 2C19, 1 µM, 30-Minute Preincubation, 1 µM
  Percent of Control Activity: 97.8%
CYP2C19; CYP 2C19, 1 µM, Zero-Minute Preincubation, 1 µM
  Percent of Control Activity: 102.1%
CYP2C19; CYP 2C19, 15.8 µM, 30-Minute Preincubation, 15.8 µM
  Percent of Control Activity: 97.1%
CYP2C19; CYP 2C19, 15.8 µM, Zero-Minute Preincubation, 15.8 µM
  Percent of Control Activity: 107.2% and 102.9%
CYP2C19; CYP 2C19, 100 µM, 30-Minute Preincubation, 100 µM
  Percent of Control Activity: 97.8% and 97.1%
CYP2C19; S-Mephenytoin 4′-hydroxylation, T0
  IC50: > 100 µM
CYP2C19; CYP 2C19, 0.01 µM, 30-Minute Preincubation
  activity at 0.01 µM: 103%
CYP2C19; CYP 2C19, 0.01 µM, Zero-Minute Preincubation
  activity at 0.01 µM: 99.3%
CYP2C19; CYP 2C19, 0.158 µM, 30-Minute Preincubation
  activity at 0.158 µM: 100%
CYP2C19; CYP 2C19, 0.158 µM, Zero-Minute Preincubation
  activity at 0.158 µM: 94.4%
CYP2C19; CYP 2C19, 0.398 µM, 30-Minute Preincubation
  activity at 0.398 µM: 102%
CYP2C19; CYP 2C19, 0.398 µM, Zero-Minute Preincubation
  activity at 0.398 µM: 96.5%
CYP2C19; CYP 2C19, 1 µM, 30-Minute Preincubation
  activity at 1 µM: 101%
CYP2C19; CYP 2C19, 1 µM, Zero-Minute Preincubation
  activity at 1 µM: 95.8%
CYP2C19; CYP 2C19, 15.8 µM, 30-Minute Preincubation
  activity at 15.8 µM: 102%
CYP2C19; CYP 2C19, 15.8 µM, Zero-Minute Preincubation
  activity at 15.8 µM: 104%
CYP2C19; 30-Minute Preincubation
  activity at 39.8 µM: 97.7%
CYP2C19; Zero-Minute Preincubation
  activity at 39.8 µM: 94.4%
CYP2C19; CYP 2C19, 100 µM, 30-Minute Preincubation
  activity at 100 µM: 95.5%
CYP2C19; CYP 2C19, 100 µM, Zero-Minute Preincubation
  activity at 100 µM: 91.5%
